Source: ChEMBL document CHEMBL1201862, “PubChem BioAssay data set” (2004)
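Method: 48-hour compound exposure of cells in 96-well plates, five concentrations, linear interpolation of endpoints. At the GI50, growth is halved.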 Active and inactive are the calls of the source. Rule as the data show it: active = GI50 up to about 1.1 µM and inactive = higher.

Columns and labels:
Assay in all cases: NCI anticancer screen, dose series, 48 h
[1] = system: OVCAR-4
[2] = system: Malme-3M
[3] = system: SK-MEL-5
[4] = system: SN12C
[5] = system: HT-29
[6] = system: U-251
[7] = system: HCT-116
[8] = system: SK-OV-3
[9] = system: UO-31
[10] = system: CAKI-1
[11] = system: SR
[12] = system: TK-10
[13] = system: OVCAR-8
[14] = system: NCI/ADR-RES
[15] = system: T47D
[16] = system: Hs-578T
[17] = system: HCC 2998
[18] = system: PC-3

Measured: GI50

CC(C)C(Sc1nc(-c2ccccc2)c(-c2ccccc2)[nH]1)C(=O)N/N=C/c1ccc(Cl)cc1 (stereo unspecified)
inactive: [1] 27.7 µM | [2] 23.7 µM | [3] 16.7 µM | [4] 17.5 µM | [5] 14.9 µM | [6] 21.7 µM | [7] 15.8 µM | [8] 27.2 µM | [9] 19.5 µM | [10] 44.5 µM | [11] 32.4 µM | [12] 21.5 µM | [13] 19.7 µM

NC1=C(N2CCCCC2)C(=O)NC2=N/C(=C\c3ccco3)C(=O)N21
inactive: [1] > 100 µM | [14] > 100 µM | [2] > 100 µM | [3] > 100 µM | [4] > 100 µM | [15] > 100 µM | [5] > 100 µM | [6] > 100 µM | [16] > 100 µM | [7] > 100 µM | [8] > 100 µM | [9] > 100 µM | [10] > 100 µM | [11] 88.3 µM | [12] > 100 µM | [13] > 100 µM

NC1=NN(c2ccccc2)C(=O)C1C(=O)CCC(=O)Nc1cccc(C(F)(F)F)c1 (stereo unspecified)
inactive: [1] > 100 µM | [17] > 100 µM | [2] > 100 µM | [3] > 100 µM | [4] > 100 µM | [5] > 100 µM | [6] > 100 µM | [7] > 100 µM | [8] > 100 µM | [9] > 100 µM | [10] > 100 µM | [11] > 100 µM | [12] > 100 µM | [13] > 100 µM

Cc1c(C)c(S(=O)(=O)N(CCCCN)OCCCN)c(C)c2c1OC(C)(C)CC2
inactive: [1] 13.8 µM | [17] 6.08 µM | [14] 74.6 µM | [3] 33 µM | [4] 29.6 µM | [15] 23.7 µM | [5] 17.6 µM | [6] 21.9 µM | [16] 13.2 µM | [7] 16.6 µM | [8] 15.6 µM | [18] 5.47 µM | [9] 19.4 µM | [10] 32.1 µM | [11] 42.7 µM | [12] 14.5 µM | [13] 18.7 µM

CC(C)(C)C(=O)C(C(=O)c1ccccc1)C(=O)C(C)(C)C
inactive: [1] 64.7 µM | [17] > 100 µM | [14] 30.5 µM | [2] > 100 µM | [3] > 100 µM | [4] > 100 µM | [15] > 100 µM | [5] > 100 µM | [6] > 100 µM | [16] > 100 µM | [7] 56.1 µM | [8] > 100 µM | [18] > 100 µM | [9] > 100 µM | [10] > 100 µM | [12] > 100 µM | [13] 48.5 µM

O=C(CC(C(=O)c1ccsc1)c1ccccc1)c1ccccc1 (stereo unspecified)
inactive: [1] 6.5 µM | [17] > 100 µM | [14] 18.7 µM | [3] 43.2 µM | [4] > 100 µM | [15] 20.2 µM | [5] > 100 µM | [6] 95.9 µM | [16] > 100 µM | [7] 75 µM | [8] > 100 µM | [9] > 100 µM | [10] > 100 µM | [11] > 100 µM | [12] > 100 µM | [13] > 100 µM

O=C(Nc1cc(Cl)ccc1Cl)c1cc2ccccc2oc1=O
inactive: [2] 18 µM | [3] > 100 µM | [4] 75.9 µM | [5] > 100 µM | [6] 59.3 µM | [7] > 100 µM | [8] 38.9 µM | [12] > 100 µM | [13] 88.3 µM

CC1(C)CC[C@]2(C(=O)O)CC[C@]3(C)C(=CCC4=C5C[C@H](O)[C@H](O)[C@@](C)(CO)[C@@]5(C)CC[C@]43C)[C@@H]2C1
inactive: [1] 36.7 µM | [17] 24 µM | [14] 43.4 µM | [2] 69.2 µM | [3] 22.9 µM | [4] 39.6 µM | [15] 28.4 µM | [5] 41.5 µM | [6] 48.2 µM | [16] 39.9 µM | [7] 31.3 µM | [8] > 100 µM | [18] 59.3 µM | [9] 47.1 µM | [10] 28.1 µM | [11] > 100 µM | [12] 53.6 µM | [13] 44.3 µM

C/C(CN1C(=O)c2ccccc2C1=O)=N\NS(=O)(=O)c1ccc(Br)cc1
inactive: [1] > 100 µM | [17] > 100 µM | [2] > 100 µM | [3] > 100 µM | [4] > 100 µM | [5] > 100 µM | [6] > 100 µM | [7] > 100 µM | [8] > 100 µM | [9] > 100 µM | [10] > 100 µM | [12] > 100 µM | [13] > 100 µM

N#CC(NNC(=O)c1ccccc1O)c1ccc(O)cc1 (stereo unspecified)
inactive: [1] 13.1 µM | [2] 29.6 µM | [3] 19.4 µM | [4] 18.6 µM | [5] 28.1 µM | [6] 3.8 µM | [7] 3.33 µM | [8] 6.44 µM | [9] 2.3 µM | [10] 6 µM | [11] 2.8 µM | [12] 39.5 µM | [13] 7.66 µM
